In PubChem BioAssay (NCI):
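These data come from cells grown in 96-well plates and exposed to compound for 48 hours at five concentrations. TGI marks complete inhibition of growth.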 Where a SMILES comes first, the peptide text is derived from it. The star is where a group is joined. Boc = CC(C)(C)OC(=O)*

Columns and labels:
Assay in all cases: NCI-60 cell line screen, 48 h
786-0 renal = tested on: 786-0 renal
SR leukemia = tested on: SR leukemia
SK-OV-3 ovarian = tested on: SK-OV-3 ovarian
SK-MEL-5 melanoma = tested on: SK-MEL-5 melanoma
MDA-MB-231 breast = tested on: MDA-MB-231 breast
SNB-19 CNS = tested on: SNB-19 CNS
OVCAR-5 ovarian = tested on: OVCAR-5 ovarian
SF-539 CNS = tested on: SF-539 CNS
SN12C renal = tested on: SN12C renal
OVCAR-3 ovarian = tested on: OVCAR-3 ovarian
MALME-3M melanoma = tested on: MALME-3M melanoma
IGROV1 ovarian = tested on: IGROV1 ovarian
OVCAR-8 ovarian = tested on: OVCAR-8 ovarian
CCRF-CEM leukemia = tested on: CCRF-CEM leukemia
PC-3 prostate = tested on: PC-3 prostate
HL-60(TB) leukemia = tested on: HL-60(TB) leukemia

Row | Structure (SMILES) | TGI (786-0 renal) [µM] | TGI (SR leukemia) [µM] | TGI (SK-OV-3 ovarian) [µM] | TGI (SK-MEL-5 melanoma) [µM] | TGI (MDA-MB-231 breast) [µM] | TGI (SNB-19 CNS) [µM] | TGI (OVCAR-5 ovarian) [µM] | TGI (SF-539 CNS) [µM] | TGI (SN12C renal) [µM] | TGI (OVCAR-3 ovarian) [µM] | TGI (MALME-3M melanoma) [µM] | TGI (IGROV1 ovarian) [µM] | TGI (OVCAR-8 ovarian) [µM] | TGI (CCRF-CEM leukemia) [µM] | TGI (PC-3 prostate) [µM] | TGI (HL-60(TB) leukemia) [µM]
1 | Cc1nc2c(=O)n(C)c(=O)nc-2n(CCO)c1C | > 100 | > 100 | > 100 | > 100 | > 100 | > 100 | > 100 | > 100 | > 100 | > 100 | > 100 | > 100 | > 100 | > 100 | > 100 | 
2 | COC(=O)C(Cc1c[nH]c2ccccc12)NC(=O)C(Cc1c[nH]c2ccccc12)NC(=O)C(Cc1c[nH]c2ccccc12)NC(=O)OC(C)(C)C (stereo not drawn) (Boc-Trp-Trp-Trp-OMe; configuration not given here) | 31.7 |  |  | > 100 | 93.1 | 47 | 32 |  | 39.4 |  | > 100 | 40.5 | 38.8 |  | 30 | 47.4
3 | CC(C)Oc1c(C2(c3ccccc3O)SCCCS2)c(=O)c1=O | > 100 |  | > 100 | > 100 | > 100 | > 100 | > 100 | > 100 | > 100 | > 100 |  | > 100 | > 100 | 61.6 | > 100 | > 100
4 | CCCC(=O)OCC1(CO)C/C(=C/CC(C(C)C)C(C)C)C(=O)O1 (stereo unspecified) | > 100 |  | > 100 | > 100 | > 100 | > 100 | > 100 |  | > 100 | > 100 | > 100 | > 100 | > 100 | > 100 | > 100 | 
5 | Cc1ccc(/C=C/C(=O)C(C)C)cc1 | > 100 | 98.4 | > 100 | > 100 |  | > 100 | 53.7 |  |  | 83.1 |  | > 100 | > 100 | 67.3 |  | 
6 | Nc1nc(N)c2ncn(-c3ccc(Cl)c(Cl)c3)c2n1 | 27.5 |  | > 100 | > 100 | 77.7 | > 100 | > 100 | 67.6 | 61.7 | 44.1 | 49.2 | 64.6 | > 100 | 28.8 | 82.1 | 
7 | CCNc1nc(N)c(C(=O)c2cccs2)s1 | > 100 |  | > 100 | 44.8 | > 100 | > 100 | > 100 | 46.4 | > 100 | > 100 | > 100 | 50.3 | > 100 |  | > 100 | 21.9
8 | C[n+]1c2ccccc2c(C(=O)NC(CCCN=C(N)N)C(=O)O)c2ccccc21 (stereo unspecified) | > 100 | > 100 | > 100 | > 100 | > 100 | > 100 | > 100 | > 100 | > 100 | > 100 | > 100 | > 100 | > 100 |  | > 100 | 
9 | COc1ccc2[nH]c3c([N+](=O)[O-])ccc(Cl)c3c(=O)c2c1 | 33.7 |  | > 100 | 55.2 | 32.8 | > 80.9 | > 58 | 34.2 | 55.1 | 31.7 | 40.4 | 18.6 | > 74 | 10.2 | 52.1 | 9.84
10 | COc1cc(CNc2nc3ccccc3n2Cc2ccccc2)cc(CN2CCOCC2)c1O | 31.6 |  | > 100 | 34.2 | 38.1 | > 100 | 87.8 | 34.5 | > 100 | 56.6 | 34 | > 100 | > 100 | > 100 | 99.5 | 
11 | COC(=O)/C(=N\N)C(C(=O)C(=O)Nc1cccc([N+](=O)[O-])c1)c1nc2ccc(C(=O)c3ccccc3)cc2[nH]c1=O (stereo unspecified) | > 100 |  | > 100 | > 100 | > 100 | > 100 | > 100 | > 100 | > 100 | > 100 |  | > 100 | > 100 | 79.4 | > 100 | > 100
12 | Cc1cc(C)c(S(=O)(=O)N(CCCCCCN)OCCCN)c(C)c1 | 32.1 |  | 34 | 37.6 | 24.4 | 38.2 | 40.1 | 34.2 | 37.2 | 46 | 24 | 29.6 | 27.9 | 36.9 | 28.1 | 33.3
13 | Nc1ccc(C(=O)NN2C(=O)C(Cl)C2c2cc(Br)cc(Br)c2O)cc1 (stereo unspecified) | > 100 | > 100 | > 100 | 65.5 |  | > 100 | > 100 | 57 |  |  | 97.9 | > 100 | > 100 | > 100 |  | > 100
14 | O=[N+]([O-])c1cc2c(cc1O)[nH]c1cccc([N+](=O)[O-])c12 | > 100 | > 100 |  | > 100 |  | > 100 | > 100 | > 100 | > 100 | > 100 | > 100 |  | > 100 | > 100 |  | > 100
15 | COc1cc(C(C#N)NNC(=O)Cc2ccccc2)cc(OC)c1OC (stereo unspecified) | > 100 | > 100 | > 100 | > 100 |  |  | > 100 | > 100 | > 100 | > 100 | > 100 | > 100 | > 100 |  |  | > 100
16 | CC(C)(C)OC(=O)NNC(=O)C1Cc2ccccc2OC1=O (stereo unspecified) | > 100 | > 100 | > 100 | > 100 |  | > 100 | > 100 | > 100 | > 100 | > 100 | > 100 | > 100 | > 100 |  | > 100 | 
17 | CC(NC1=NCCO1)c1cccs1 (stereo unspecified) | 36.6 | > 100 | > 100 | 75.1 | > 100 | 55.9 | > 100 |  | > 100 |  | 76.8 | 61.6 | > 100 | 78.5 |  | 45.4

Row | Structure (SMILES) | TGI (786-0 renal) [µM] | TGI (SR leukemia) [µM] | TGI (SK-OV-3 ovarian) [µM] | TGI (SK-MEL-5 melanoma) [µM] | TGI (MDA-MB-231 breast) [µM] | TGI (SNB-19 CNS) [µM] | TGI (OVCAR-5 ovarian) [µM] | TGI (SF-539 CNS) [µM] | TGI (SN12C renal) [µM] | TGI (OVCAR-3 ovarian) [µM] | TGI (MALME-3M melanoma) [µM] | TGI (IGROV1 ovarian) [µM] | TGI (OVCAR-8 ovarian) [µM] | TGI (CCRF-CEM leukemia) [µM] | TGI (PC-3 prostate) [µM] | TGI (HL-60(TB) leukemia) [µM]
18 | CC(OC1CC(=O)CC2C(=O)C=CC(=O)C12)c1ccccc1 (stereo unspecified) | 26.9 | 42.8 | > 56.2 | 33.6 |  | > 55.9 | 31.6 | 34.5 | 33.2 | 33.3 | 34.9 | 31.4 | 33.2 | 9.54 |  | 20
19 | COc1ccc([C@@H]2CC(=O)NCCCNCCCCNCCCN2)cc1 | > 100 | > 100 | > 100 | > 100 |  | > 100 | > 100 | > 100 | > 100 |  | > 100 | > 100 | > 100 | > 100 |  | > 100
20 | CN1CCC(C(=O)NNc2ccccc2)CC1 | > 100 | > 100 | > 100 | 45.6 |  | > 100 | > 41.6 | 32.6 | > 100 | > 100 | 98.5 | > 100 | > 100 | > 100 |  | > 100
21 | CCOC(=O)CCC(NC(=O)c1ccc(Nc2cnc3cc(C(F)(F)F)ccc3n2)cc1)C(=O)OCC (stereo unspecified) | > 66.8 | > 100 |  | > 100 | > 100 | > 47.8 | > 100 | > 100 | > 100 | > 100 | > 100 | > 100 | > 100 | > 100 |  | > 100
22 | CCOC(=O)CCSS(=O)(=O)C(F)(F)F | > 100 |  | > 100 | > 100 |  | > 100 | > 100 |  | > 100 | > 100 |  | > 100 | > 100 | > 100 | > 100 | > 100
23 | CC(C)(O)/C=C\P(C)(=O)c1ccccc1 (stereo unspecified) | > 100 | > 100 | > 100 | > 100 |  | > 100 | > 100 | > 100 | > 100 | > 100 | > 100 | > 100 | > 100 |  | > 100 | 
24 | COc1cc(C2=C(C)[C@@H]3CN(CC=C3c3ccc(Cl)cc3)C2)c(S(=O)(=O)O)cc1OC | > 100 | > 100 | > 100 | > 100 | > 100 | > 100 | > 100 |  | > 100 | > 100 | > 100 | > 100 | > 100 | > 100 | > 100 | 
25 | C=C1C(=O)OC2/C=C(\C)C(=O)CC3OC(C)(C)OC3(C)CC(OC(=O)/C(C)=C/C)C12 (stereo unspecified) | > 47.9 |  | > 100 | > 91.2 | 58 | > 100 | 47.2 | 49.4 | > 59.2 | > 56.5 | 28 | 32.3 | > 68.9 | > 21.8 | 59 | > 23.4
26 | CN/C=C(/c1ccc(OC)cc1)C(O)c1ccc(OC)c(OC)c1 (stereo unspecified) | > 100 | > 100 | > 100 | > 100 |  | > 100 | > 100 | > 100 | > 100 | > 100 | > 100 | > 100 | > 100 | > 100 |  | > 100
27 | CS(=O)(=O)N1CC(CCl)c2ccc(NCCN)cc21 (stereo unspecified) | 72 |  | 87.9 | > 100 | > 100 | > 100 | > 100 | > 100 | > 100 | > 100 | > 100 | 49.8 | > 100 | > 100 | > 100 | > 100
28 | O=C1N(CN2CCOCC2)CN(CN2CCOCC2)C(=O)N1Cc1ccc(-c2ccc(CN3C(=O)N(CN4CCOCC4)CN(CN4CCOCC4)C3=O)cc2)cc1 | 79.4 | 18.9 | > 100 | > 38.9 | > 73.9 | 31.2 | 39.8 | > 74.3 |  | 30 | 34.6 | 46.4 | 82.9 |  | > 79.5 | 
29 | CC(O)CCNC(=O)Nc1c(C(F)(F)F)cc(-c2ccccc2)[nH]c1=O (stereo unspecified) | > 100 |  | > 100 | > 100 | > 100 | > 100 | > 100 |  | > 100 | > 100 | > 100 | > 100 | > 100 | > 100 | > 100 | > 100
30 | COC(=O)CCCC(=O)NC1=C(Nc2ccccc2)C(=O)c2ccccc2C1=O | 33.5 | > 100 | 53.4 |  | 43.8 | 34.6 | 30.7 | 35 | 45.1 | 38 | 12.9 | 30.2 | > 100 | 76.2 |  | 49.7
31 | COc1ccc(/C=N/NC(=O)c2ccccc2Nc2ccccc2C(=O)N/N=C/c2ccc(OC)cc2)cc1 | > 100 | > 100 | > 100 | > 100 | > 100 | > 100 | > 100 |  | > 100 | > 100 | > 100 | > 100 | > 100 | > 100 | > 100 | 
32 | CCOc1ncn(-c2ccc(NC(=S)Nc3cnccn3)cc2)n1 | > 10 | > 10 | > 10 |  | > 10 | > 10 | > 10 | > 10 | > 10 | > 10 | > 10 | > 10 | > 10 | > 10 |  | > 10
33 | O=S(Nc1ccccc1)c1ccc(-c2ccccc2)cc1 (stereo unspecified) | > 100 | > 100 |  | > 100 | > 100 | > 100 | > 100 | > 100 | > 100 | > 100 | > 100 | > 100 | > 100 | > 100 |  | > 100
